SMILES strings stand for the structures. Read-outs that look alike come from different tables or passages of the source.

For data set [1], the system named is human skin keratinocytes HaCaT. The data set can be described thus: Concentration of intracellular ascorbic acid in human skin keratinocytes. The format is cell-based. The following applies: compared with 2-O-(α-D-glucopyranosyl)ascorbic acid and ascorbic acid; FIG. 2. The procedure: At 3 to 24 hours after addition, a medium is removed, rinsed twice with ice-cooled PBS, and a cell sheet is peeled with trypsin to make single cell state. This is suspended in PBS containing 50 μM dithiothreitol (DTT), and rinsed three times by centrifugation. The cell suspension is disrupted with a potter-type teflon (registered trademark) homogenizer, and then frozen and thawed twice. […] SHODEX® ODSpak (manufactured by SHOWA DENKO K.K., 4.6×150 mm) , mobile phase: 0.1 M KH2PO4-H3PO4 (pH 2.35)-0.1 mM EDTA-2Na, flow rate: 1.5 mL/min).

Data set [2] can be described thus: Pharmacokinetics at oral ingestion by a rat: intact form in blood. The format is in vivo.
Data set [3] relates to human isolated skin piece. To be noted: female, 5 h, 100 mM, pH 7.25.
Data set [4] concerns keratinocytes (HaCaT) derived from human skin epidermis. The data set can be described thus: Protective effect on cell death of keratinocytes (HaCaT) by UVB irradiation (WST-1 cell survival rate). The format is cell-based. The following applies: same concentration, compared with ascorbic acid or 2-O-(α-D-glucopyranosyl)ascorbic acid; FIG. 1. The procedure: Human skin keratinocytes HaCaT (cell line gifted by Dr. Fusenig of Heidelberg University) was seeded to 10% bovine fetal serum (FBS)-containing Dulbecco modified Eagle medium (DMEM) at 10,000 cells/well in a 24-well plate, and after 18 hours, 35 millijoule/square centimeter (mJ/cm^2) of UBV (maximum wavelength 312 nm) was irradiated. Two hours before the irradiation, 20 to 100 μM of 2-O-(β-D-glucopyranosyl)ascorbic acid was added, and such ascorbic acid was removed immediately before the irradiation and then rinsed. Irradiation was performed in PBS in the absence of a drug, and after irradiation, culturing was continued in a FBS 10%-containing DMEM medium, and 24 hours after irradiation, a cell survival rate was investigated by a method for measuring mitochondrion dehydrogenase activity with the use of 2-(4-iodophenyl)-3-(4-nitrophenyl)-5-(2,4-disulfophenyl)-2H-tetrazolium monosodium salt (WST-1). Similarly, as Comparative Example, 2-O-(α-D-glucopyranosyl) ascorbic acid and ascorbic acid were studied, and the results are also shown in FIG. 1.
Background: Tetrazolium assays rely on reduction of a dye to a coloured formazan, in cell work by metabolically active cells.

In data set [5] the test system is normal human dermal fibroblasts (NHDF). The experiment in a line: Collagen synthesis of normal human dermal fibroblasts (3H-proline incorporation, collagenase-sensitive). The following applies: compared with 2-O-(α-D-glucopyranosyl)ascorbic acid or ascorbic acid; FIG. 3. The format is cell-based. The procedure: Normal human dermal fibroblasts NHDF are seeded in a dish having a diameter of 100 millimeter at 370,000 cells. […] After additional 1 hour, 0.12 mL (120 μCi) of L-(2,3-^3H) proline is added, followed by culturing for 48 hours. After culturing, the medium is removed, and a cell sheet is rinsed with PBS four times. Then, cells are peeled with trypsin, cells are lysed with an alkali, and neutralized to obtain an intracellular protein. The protein is subjected to collagen degradation with collagenase of Clostridium to obtain a protein fraction, and radioactivity of the fraction is measured with a liquid scintillation counter using […]. Separately, radioactivity of an intracellular protein fraction which has not been treated with collagenase is similarly measured with a liquid scintillation counter. A difference between respective radioactivities obtained is adopted as collagen synthesis activity.

Data set [6] has as its system burn patient. The following applies: applied, Japanese Cosmetic Science Society 1998; cited from earlier work.
Data set [7] has as its system pig skin. The following applies: 10% aqueous solution, pre-administration for 3 days to one week, Br. J. Dermatol. 1992; cited from earlier work.
Data set [8] deals with guinea pig skin. The following applies: shaved back, external application, Fragrance Journal 1997; cited from earlier work.
Data set [9] has as its system human skin. To be noted: cream containing the compound applied, Fragrance Journal 1997; cited from earlier work.
For data set [10] the following is noted: rat, J.Pharmacobio-Dyn., 13, 688, 1990; cited from earlier work.

On to `O=C1O[C@H]([C@@H](O)CO)C(O)=C1O[C@@H]1O[C@H](CO)[C@@H](O)[C@H](O)[C@H]1O` [AβG, 2-O-(β-D-glucopyranosyl)ascorbic acid], for which, in data set [1], the “Concentration of intracellular ascorbic acid in human skin keratinocytes” value is “maintained at a highest concentration for a longest term”. In [2], the “Intact form in blood after oral ingestion” value is listed as “detected in blood”. For the same molecule, in data set [3], the “Ratio (%) of reduced form of vitamin C occupied in total vitamin C in skin, Dermis” value is listed as 25%; the “Ratio (%) of reduced form of vitamin C occupied in total vitamin C in skin, Epidermis” value is recorded as 67%; the “Total vitamin C in skin, Dermis” value stood at 3 nmol/g tissue; the “Total vitamin C in skin, Epidermis” value came to 15 nmol/g tissue. Moreover, in data set [3], the “Uptake amount of AβG into skin piece, Dermis” value came to 500 and the “Uptake amount of AβG into skin piece, Epidermis” value was 3,400. The “Suppression of cell death of keratinocytes (HaCaT) due to UVB irradiation” value in [4] was “clearly suppressed more strongly cell death”. Also, the “Collagen synthesis by normal human dermal fibroblasts (NHDF)” value in data set [5] is “has higher activity”.

For the molecule `O=C1O[C@H]([C@@H](O)CO)C(O)=C1OP(=O)(O)O` [ascorbic acid 2-phosphate], the Cure of burn result in data set [6] is given as “cured without scar”.

`O=C1O[C@H]([C@@H](O)CO)C(O)=C1O` [ascorbic acid]: the Ultraviolet-ray disorder entry in data set [7] is listed as “ultraviolet-ray disorder can be alleviated”. In addition, the “Inducement of skin inflammation due to UVB irradiation” value in data set [8] is “suppressed”.

Take `O=C1O[C@H]([C@@H](O)CO)C(O)=C1O[C@H]1O[C@H](CO)[C@@H](O)[C@H](O)[C@H]1O` [2-O-(α-D-glucopyranosyl)ascorbic acid]: the “Pigmentation due to ultraviolet-ray irradiation” value in data set [9] was “suppressed”. Also, the “Intact form in blood after oral ingestion” value in [10] was “not detected as an intact form in blood”. The “Inducement of skin inflammation due to UVB irradiation” value in [8] was “suppressed”.

Values taken from patent US7781409B2, “Composition for external use” (Suntory Holdings Limited, priority 2003, dated 2010).
